Measurements taken from US9839623B2, “Tricyclic compounds and methods of making and using same” (Zafgen, Inc., priority 2010, dated 2017).

These molecules were tested against T1, recombinant human MetAP2 (Homo sapiens, UniProt P50579) (assay: Inhibition of recombinant human MetAP2 activity (MAS substrate, amino acid oxidase/Amplex red fluorescence)). Conditions: manganese enzyme, 30 minutes at 25° C., pH 7.5, 0.75 mM MAS substrate, 1% DMSO.
T1 construct: made in house; host or cells: Sf9 insect cells
T1 sequence (P50579 whole entry): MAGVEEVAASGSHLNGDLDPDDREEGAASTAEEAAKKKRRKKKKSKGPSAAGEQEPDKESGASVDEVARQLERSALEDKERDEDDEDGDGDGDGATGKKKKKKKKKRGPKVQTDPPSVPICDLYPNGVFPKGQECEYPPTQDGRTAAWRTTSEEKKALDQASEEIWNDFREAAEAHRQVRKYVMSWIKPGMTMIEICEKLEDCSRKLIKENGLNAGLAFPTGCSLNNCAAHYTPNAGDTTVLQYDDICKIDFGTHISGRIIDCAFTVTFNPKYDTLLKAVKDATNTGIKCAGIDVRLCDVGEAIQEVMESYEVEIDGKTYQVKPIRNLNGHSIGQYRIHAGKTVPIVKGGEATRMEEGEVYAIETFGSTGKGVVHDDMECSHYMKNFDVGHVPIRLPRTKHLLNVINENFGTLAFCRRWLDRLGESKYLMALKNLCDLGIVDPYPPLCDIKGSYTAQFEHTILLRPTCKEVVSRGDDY
Assay type: biochemical
Method: Compounds are tested for their capacity to inhibit recombinant human MetAP2 activity using the following assay.
Human recombinant MetAP2 expressed in Sf9 cells followed by affinity purification and EDTA treatment to remove endogenous active site cation was dialysed against MnCl2 to produce the manganese enzyme used in the assay. The assay was carried out for 30 minutes at 25° C. in 50 mM HEPES buffer containing 100 mM NaCl, pH 7.5 the presence of 0.75 mM Methionine-Alanine-Serine (MAS) substrate and 50 μg/mL amino acid oxidase using a dilution of purified MetAP2 giving >3-fold signal:noise. Cleavage of the substrate by MetAP2 and oxidation of free methionine by amino acid oxidase was detected and quantified using fluorescence generated by Amplex red (10-acetyl-3,7-dihydroxyphenoxazine) in combination with horseradish peroxidase which detects H2O2 released during the oxidation step. The fluorescent signal was detected using a multiwell fluorimeter. Compounds were diluted in DMSO prior to addition to assay buffer, the final DMSO concentration in the assay being 1%.
The IC50 is defined as the concentration at which a given compound achieves 50% inhibition of control. IC50 values are calculated using the XLfit software package (version 2.0.5).
With CCN(CC)C/C=C\c1cc(F)ccc1S(=O)(=O)Cc1ccc2c(c1C(=O)O)OC(C)c1occc1-2 (racemic) [Example 15] the IC50 was < 100 nM.
In the case of CCN(CC)C/C=C\c1cc(F)ccc1S(=O)(=O)Cc1ccc2c(c1C(=O)O)OC(C)c1occc1-2 (single isomer, unassigned) [Example 18A, 7-[2-((Z)-3-diethylaminoprop-1-enyl)-4-fluorobenzenesulfonylmethyl]-4-methyl-4H-furo[2,3-c]chromene-6-carboxylic Acid], the IC50 is reported as < 100 nM.
With CCN(CC)C/C=C\c1cc(F)ccc1S(=O)(=O)Cc1ccc2c(c1C(=O)O)OC(C)c1occc1-2 (single isomer, unassigned) [Example 18B, 7-[2-((Z)-3-diethylaminoprop-1-enyl)-4-fluorobenzenesulfonylmethyl]-4-methyl-4H-furo[2,3-c]chromene-6-carboxylic Acid] the IC50 was 100 to 1000 nM.
With C[C@H]1Oc2c(ccc(CS(=O)(=O)c3ccccc3)c2C(=O)O)-c2ccoc21 (stereo in doubt) [Example 6, 7-(Benzenesulfonylmethyl)-4-methyl-4H-furo[2,3-c]chromene-6-carboxylic Acid] the IC50 was < 100 nM.
With CCN(CC)C/C=C\c1cc(F)ccc1S(=O)(=O)Nc1ccc2c(c1C(=O)O)OCc1occc1-2 [Example 1, 7-[2-((Z)-3-Diethylaminoprop-1-enyl)-4-fluorobenzenesulfonylamino]-4H-furo[2,3-c]chromene-6-carboxylic Acid] the IC50 was < 100 nM.
In the case of O=C(O)c1c(CS(=O)(=O)c2ccccc2)ccc2c1OCc1occc1-2 [Example 2, 7-(Benzenesulfonylmethyl)-4H-furo[2,3-c]chromene-6-carboxylic Acid], the IC50 is reported as < 100 nM.
With O=C(O)c1c(CS(=O)(=O)c2ccccc2)ccc2c1OCCc1occc1-2 [Example 3, 8-(Benzenesulfonylmethyl)-4,5-dihydro-3,6-dioxabenzo[e]azulene-7-carboxylic Acid] the IC50 was 100 to 1000 nM.
For O=C(O)c1c(CS(=O)(=O)c2ccccc2)ccc2c1ncc1occc12 [Example 4, 7-(Benzenesulfonylmethyl)-furo[2,3-c]quinoline-6-carboxylic Acid], the IC50 was 100 to 1000 nM.
O=C(O)c1c(CS(=O)(=O)c2ccccc2)ccc2c1oc(=O)c1occc12 [Example 5, 7-(Benzenesulfonylmethyl)-4-oxo-4H-furo[2,3-c]chromene-6-carboxylic Acid] was tested, and the IC50 was 100 to 1000 nM.
In the case of CCN(CC)C/C=C\c1cc(F)ccc1S(=O)(=O)Nc1ccc2c(c1C(=O)O)OCCc1occc1-2 [Example 7, 8-[2-((Z)-3-Diethylaminoprop-1-enyl)-4-fluorobenzenesulfonylamino]-4,5-dihydro-3,6-dioxabenzo[e]azulene-7-carboxylic Acid], the IC50 is reported as < 100 nM.
For CCN(CC)C/C=C\c1cc(F)ccc1S(=O)(=O)Nc1ccc2c(ncc3occc32)c1C(=O)O [Example 8, 7-[2-((Z)-3-Diethylaminoprop-1-enyl)-4-fluorobenzenesulfonylamino]-furo[2,3-c]quinoline-6-carboxylic Acid], the IC50 was < 100 nM.
For CCN(CC)CCCc1cc(F)ccc1S(=O)(=O)Nc1ccc2c(c1C(=O)O)OCc1occc1-2 [Example 9, 7-[2-(3-Diethylaminopropyl)-4-fluorobenzenesulfonylamino]-4H-furo[2,3-c]chromene-6-carboxylic Acid], the IC50 was < 100 nM.
With CCNC/C=C\c1cc(F)ccc1S(=O)(=O)Nc1ccc2c(c1C(=O)O)OCc1occc1-2 [Example 10, 7-[2-((Z)-3-Ethylaminoprop-1-enyl)-4-fluorobenzenesulfonylamino]-4H-furo[2,3-c]chromene-6-carboxylic Acid] the IC50 was < 100 nM.
In the case of CCN(CC)CCCc1cc(F)ccc1S(=O)(=O)Nc1ccc2c(c1C(=O)O)OCCc1occc1-2 [Example 11, 8-[2-(3-Diethylaminopropyl)-4-fluorobenzenesulfonylamino]-4,5-dihydro-3,6-dioxabenzo[e]azulene-7-carboxylic Acid], the IC50 is reported as < 100 nM.
For O=C(O)c1c(NS(=O)(=O)c2ccc(F)cc2/C=C\CN2CCOCC2)ccc2c1OCc1occc1-2 [Example 12, 7-{4-Fluoro-2-[(Z)-3-(morpholin-4-yl)prop-1-enyl]benzenesulfonylamino}-4H-furo[2,3-c]chromene-6-carboxylic Acid], the IC50 was < 100 nM.
With O=C(O)c1c(NS(=O)(=O)c2ccc(F)cc2/C=C\CN2CCCC2)ccc2c1OCc1occc1-2 [Example 13, 7-{4-Fluoro-2-[(Z)-3-(pyrrolidin-1-yl)prop-1-enyl]benzenesulfonylamino}-4H-furo[2,3-c]chromene-6-carboxylic Acid] the IC50 was < 100 nM.
For CCN(CC)C/C=C\c1cc(F)ccc1S(=O)(=O)Nc1ccc2c(oc(=O)c3occc32)c1C(=O)O [Example 14], the IC50 was < 100 nM.
With CCN(CC)CCCc1cc(F)ccc1S(=O)(=O)Nc1ccc2c(ncc3occc32)c1C(=O)O [Example 16, 7-[2-(3-Diethylaminopropyl)-4-fluorobenzenesulfonylamino]-furo[2,3-c]quinoline-6-carboxylic Acid] the IC50 was < 100 nM.
For CCN(CC)C/C=C\c1cc(F)ccc1S(=O)(=O)Nc1ccc2c(c1C(=O)O)OCc1cnsc1-2 [Example 17, 7-[2-((Z)-3-Diethylaminoprop-1-enyl)-4-fluorobenzenesulfonylamino]-4H-chromeno[3,4-d]isothiazole-6-carboxylic Acid], the IC50 was < 100 nM.
With CCN(CC)C/C=C\c1ccccc1S(=O)(=O)Nc1ccc2c(c1C(=O)O)OCc1occc1-2 [Example 19] the IC50 was < 100 nM.
With O=C(O)c1c(NS(=O)(=O)c2ccc(F)cc2/C=C\CN2CC[C@@H](O)C2)ccc2c1OCc1occc1-2 [Example 20, 7-{4-Fluoro-2-[(Z)-3-((R)-3-hydroxypyrrolidin-1-yl)-prop-1-enyl]-benzenesulfonylamino}-4H-furo[2,3-c]chromene-6-carboxylic Acid] the IC50 was < 100 nM.
In the case of O=C(O)c1c(NS(=O)(=O)c2ccc(F)cc2/C=C\CN2CC[C@H](O)C2)ccc2c1OCc1occc1-2 [Example 21, 7-{4-Fluoro-2-[(Z)-3-((S)-3-hydroxypyrrolidin-1-yl)-prop-1-enyl]-benzenesulfonylamino}-4H-furo[2,3-c]chromene-6-carboxylic Acid], the IC50 is reported as < 100 nM.
In the case of CCN(CC)C/C=C\c1cc(F)ccc1S(=O)(=O)Nc1ccc2c([nH]c(=O)c3occc32)c1C(=O)O [Example 22, 7-[2-((Z)-3-Diethylaminoprop-1-enyl)-4-fluorobenzenesulfonylamino]-4-oxo-4,5-dihydrofuro[2,3-c]quinoline-6-carboxylic Acid], the IC50 is reported as < 100 nM.
In the case of O=C(O)c1c(NS(=O)(=O)c2ccc(F)cc2/C=C\CN2CCC2)ccc2c1OCc1occc1-2 [Example 23, 7-{2-[(Z)-3-(Azetidin-1-yl)prop-1-enyl]-4-fluorobenzenesulfonyl-amino}-4H-furo[2,3-c]chromene-6-carboxylic Acid], the IC50 is reported as < 100 nM.
For O=C(O)c1c(NS(=O)(=O)c2ccc(F)cc2/C=C\CN2CC(O)C2)ccc2c1OCc1occc1-2 [Example 24, 7-{4-Fluoro-2-[(Z)-3-(3-hydroxyazetidin-1-yl)-prop-1-enyl]-benzenesulfonylamino}-4H-furo[2,3-c]chromene-6-carboxylic Acid], the IC50 was < 100 nM.
For CCN(CC)C/C=C\c1cc(F)ccc1S(=O)(=O)Nc1ccc2c(c1C(=O)O)OCc1occ(F)c1-2 [Example 25, 7-[2-((Z)-3-Diethylaminoprop-1-enyl)-4-fluorobenzenesulfonylamino]-1-fluoro-4H-furo[2,3-c]chromene-6-carboxylic Acid], the IC50 was < 100 nM.
CCN(CC)C/C=C/c1cc(F)ccc1S(=O)(=O)Nc1ccc2c(c1C(=O)O)OCc1occc1-2 [Example 26, 7-[2-((E)-3-Diethylaminoprop-1-enyl)-4-fluorobenzenesulfonylamino]-4H-furo[2,3-c]chromene-6-carboxylic Acid] was tested, and the IC50 was < 100 nM.
